Assay results from patent US8350048B2, “Amide compounds as boosters of antivirals” (Janssen R&D Ireland, priority 2007, dated 2013).
Where two headings read alike, the source gives them in different places.

Tests used:
[1] = Metabolic stability of test compounds (HLM15'); format: in vitro ADME, human; conditions: human liver microsomes 1 mg/ml, 5 μM test compound, 15 min; for recovery at 15 min, 5 μM: pH 7.4, read-out: Metabolic stability (HLM, % recovery after 15')
Source text: Human liver tissue is rinsed in ice-cold 0.1 M Tris-HCl (pH 7.4) buffer to wash excess blood. Tissue is then blotted dry, weighed and chopped coarsely using surgical scissors. The tissue pieces are homogenized in 3 volumes of ice-cold 0.1 M phosphate buffer (pH 7.4) using either a Potter-S (Braun, Italy) equipped with a Teflon pestle or a Sorvall Omni-Mix homogenizer, for 7×10 sec. In both cases, the vessel is kept in/on ice during the homogenization process. Tissue homogenates are centrifuged at 9000×g for 20 min at 4° C. using a Sorvall centrifuge or Beckman Ultracentrifuge. The resulting supernatant can be stored at −80° C. and is designated ‘S9’. The S9 fraction is centrifuged at 100,000×g for 60 min at 4° C. using a Beckman ultracentrifuge. The resulting supernatant is carefully aspirated, aliquoted and designated ‘cytosol’. The pellet is re-suspended in 0.1 M phosphate buffer (pH 7.4) in a final volume of 1 ml per 0.5 g original tissue weight and designated ‘microsomes’. All sub-cellular fractions are aliquoted, immediately frozen in liquid nitrogen and stored at −80° C. until use.
Heat-inactivated (10 min at 95° C.) ‘S9’ or microsomes were used for blank experiments. […] The reaction was incubated for 0 or 15 min. Next, the reaction was stopped by addition of 2 volumes of DMSO (or acetonitrile). Samples were centrifuged (10 min, 900×g) and analyzed by LC-MS.

[2] = system: wild-type HIV-1IIIB strain; test: Antiviral activity, MT4 LTR-EGFP cellular assay; format: cell-based; parameters: key to Antiviral activity IIIB (pEC50): pEC50 = -log10(EC50); conditions: for EC50: read-out: Antiviral activity IIIB (pEC50) (converted)
Description: (§1) Assay 1 &2: Antiviral Activity/Toxicity
The compounds of the present invention were tested for antiviral activity in a cellular assay, which was performed according to the following procedure.
The human T-cell line MT4 is engineered with Green Fluorescent Protein (GFP) and an HIV-specific promoter, HIV-1 long terminal repeat (LTR). This cell line is designated MT4 LTR-EGFP, and can be used for the in vitro evaluation of anti-HIV activity of investigational compounds. In HIV-1 infected cells, the Tat protein is produced which upregulates the LTR promotor and finally leads to stimulation of the GFP reporter production, allowing measuring ongoing HIV-infection fluorometrically.
(§2) The ratio of CC50 to EC50 is defined as the selectivity index (SI) and is an indication of the selectivity of the anti-HIV activity of the inhibitor. The ultimate monitoring of HIV-1 infection and cytotoxicity is done using a scanning microscope. Image analysis allows very sensitive detection of viral infection. Measurements are done before cell necrosis, which usually takes place about five days after infection, in particular measurements are performed three days after infection.
(§3) A pEC50 value corresponds to −log10(EC50). A pCC50 value corresponds to −log10(CC50).

CYP2C19 [3] = molecular target: T1, CYP2C19 (Homo sapiens, UniProt P33261); test: CYP450 inhibition CDNA-CYP2C19-CEC; conditions: 10 μM test compound, substrate CEC 25 μM, 30 min
T1 sequence (P33261 whole entry): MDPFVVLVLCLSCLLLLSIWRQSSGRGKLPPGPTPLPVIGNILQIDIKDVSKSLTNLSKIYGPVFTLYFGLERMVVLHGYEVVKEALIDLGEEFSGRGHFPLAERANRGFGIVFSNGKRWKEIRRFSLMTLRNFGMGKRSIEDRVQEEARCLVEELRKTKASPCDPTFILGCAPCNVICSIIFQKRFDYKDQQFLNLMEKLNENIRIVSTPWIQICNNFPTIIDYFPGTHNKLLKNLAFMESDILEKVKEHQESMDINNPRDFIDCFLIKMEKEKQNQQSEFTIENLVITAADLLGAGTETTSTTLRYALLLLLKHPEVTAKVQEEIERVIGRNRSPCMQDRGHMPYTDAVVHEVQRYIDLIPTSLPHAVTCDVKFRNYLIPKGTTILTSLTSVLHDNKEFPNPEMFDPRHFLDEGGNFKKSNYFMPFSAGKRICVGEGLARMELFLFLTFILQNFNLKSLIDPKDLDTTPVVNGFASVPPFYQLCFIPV
Description: (§6) Inhibition of the metabolism of test compounds by different CYP P450 isoenzymes was determined using E. coli expressed proteins (3A4, 2C9, 2D6, 1A2, and 2C19) that convert their specific substrates into a fluorescent molecule (Table 6). This fluorescent molecule was measured using a fluorescent plate reader (Victor2 (Wallac) or Fluoroskan (Labsystems)). […] CYP P450 enzymes were prepared in house or commercially bought and stored at −80° C.
(§7) The assay was performed in black 96 well Costar plates. Test compounds were added to a CYP P450 enzyme solution in the presence of an NADPH generating system. After 5 min of preincubation at 37° C., the freshly prepared, phosphate buffered (pH 7.4) substrate solution was added. Known CYP P450 inhibitors were used as positive controls, negative controls were run without CYP P450 enzyme. […] Reaction mixtures were incubated at 37° C. for 30 min (CYP3A4-BFC), 30 min (CYP3A4-BQ), 10 min (CYP3A4-DBF), 15 min (CYP1A2-CEC), 30 min (CYP2C9-MFC, CYP2C19-CEC), or 45 min (CYP2D6-AMMC), respectively. Then, the reaction was stopped by the addition of 200 μl acetonitrile, and the fluorescent signal was detected.
(§8) Calculation of CYP P450 isoenzyme inhibition (% inh.):
(§9) % activity=(100/(average positive control−average negative control))×(average sample−average negative control)

CYP2C9 = CYP2C9 (Homo sapiens, UniProt P11712); test: in vitro
Sequence of CYP2C9 (P11712 whole entry): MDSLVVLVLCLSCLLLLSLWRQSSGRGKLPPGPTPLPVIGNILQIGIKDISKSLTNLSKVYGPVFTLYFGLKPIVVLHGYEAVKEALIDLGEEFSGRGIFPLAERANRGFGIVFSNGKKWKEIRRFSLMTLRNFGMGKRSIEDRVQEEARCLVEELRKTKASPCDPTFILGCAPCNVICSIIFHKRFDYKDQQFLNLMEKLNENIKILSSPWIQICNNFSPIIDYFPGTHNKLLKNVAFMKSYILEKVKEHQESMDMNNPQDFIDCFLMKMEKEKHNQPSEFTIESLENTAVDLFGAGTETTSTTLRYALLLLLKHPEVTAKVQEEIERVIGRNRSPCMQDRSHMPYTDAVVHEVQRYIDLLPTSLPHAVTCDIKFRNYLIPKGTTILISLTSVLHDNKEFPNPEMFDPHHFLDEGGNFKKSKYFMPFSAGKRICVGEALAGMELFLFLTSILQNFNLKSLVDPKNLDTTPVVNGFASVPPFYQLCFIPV
Source text: (§4) Assay 4: CYP450 Inhibition

CYP3A4 [4] = molecular target: T2, CYP3A4 (Homo sapiens, UniProt P08684); test: CYP450 inhibition CDNA-CYP3A4-BQ; conditions: 10 μM test compound, substrate BQ 60 μM, 30 min
T2 sequence (P08684 whole entry): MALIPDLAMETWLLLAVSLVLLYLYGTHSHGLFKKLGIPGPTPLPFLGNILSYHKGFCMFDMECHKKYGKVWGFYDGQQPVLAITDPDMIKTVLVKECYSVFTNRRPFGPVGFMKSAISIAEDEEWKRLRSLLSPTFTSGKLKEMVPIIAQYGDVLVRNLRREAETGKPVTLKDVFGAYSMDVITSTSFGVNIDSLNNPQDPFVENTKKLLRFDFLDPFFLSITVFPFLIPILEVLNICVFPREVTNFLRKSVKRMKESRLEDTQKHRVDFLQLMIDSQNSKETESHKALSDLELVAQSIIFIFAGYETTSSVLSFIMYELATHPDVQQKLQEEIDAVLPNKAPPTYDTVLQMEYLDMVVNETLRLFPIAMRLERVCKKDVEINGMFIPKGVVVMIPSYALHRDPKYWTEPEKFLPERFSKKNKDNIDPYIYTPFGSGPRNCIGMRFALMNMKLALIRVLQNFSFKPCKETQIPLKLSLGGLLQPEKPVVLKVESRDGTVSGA
Source text: as §4

CYP3A4 [5] = molecular target: T2, CYP3A4; test: CYP450 inhibition CDNA-CYP3A4-BFC; conditions: 10 μM test compound, substrate BFC 150 μM, 30 min
Source text: as §4

MT4 CMV-EGFP cells = test: Toxicity, mock-infected MT4 CMV-EGFP cells; format: cell-based, human
Source text: as §1
(§5) Analogously, MT4 cells are engineered with GFP and the constitutional cytomegalovirus (CMV) promotor. […] Cytotoxic investigational compounds reduce GFP levels of mock-infected MT4 CMV-EGFP cells.
as §2, §3

CYP2D6 = CYP2D6 (Homo sapiens, UniProt P10635); test: in vitro; conditions: pH 7.4
Sequence of CYP2D6 (P10635 whole entry): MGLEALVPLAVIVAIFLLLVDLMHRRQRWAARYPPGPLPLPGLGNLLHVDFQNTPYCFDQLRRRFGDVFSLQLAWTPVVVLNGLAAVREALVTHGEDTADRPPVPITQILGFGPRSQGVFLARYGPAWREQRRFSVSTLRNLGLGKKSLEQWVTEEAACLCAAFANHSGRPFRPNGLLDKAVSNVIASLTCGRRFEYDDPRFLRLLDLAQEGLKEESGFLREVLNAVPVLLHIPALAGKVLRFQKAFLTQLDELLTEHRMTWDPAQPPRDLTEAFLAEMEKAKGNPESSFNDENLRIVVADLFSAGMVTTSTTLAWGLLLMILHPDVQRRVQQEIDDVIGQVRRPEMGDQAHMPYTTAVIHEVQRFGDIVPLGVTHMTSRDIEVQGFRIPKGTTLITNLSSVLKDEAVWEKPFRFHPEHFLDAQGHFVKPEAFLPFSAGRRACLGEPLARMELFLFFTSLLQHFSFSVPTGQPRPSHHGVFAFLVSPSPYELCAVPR
Description: as §6, §7, §8, §9

CYP2C19 [6] = molecular target: T1, CYP2C19; test: in vitro; conditions: E. coli expressed CYP2C19, pH 7.4, probe CEC 25 μM
Description: as §6, §7, §8, §9

[7] = Toxicity, mock-infected MT4 CMV-EGFP cells; format: cell-based, human; conditions: human; for CC50 at 3 days: mock-infected MT4 CMV-EGFP cells, read-out: Toxicity MT4 (pCC50) (converted)
Source text: as §1, §5, §2, §3

CYP1A2 = molecular target: T3, CYP1A2 (Homo sapiens, UniProt P05177); test: in vitro; conditions: E. coli expressed CYP1A2, pH 7.4, probe CEC 5 μM
T3 sequence (P05177 1-516): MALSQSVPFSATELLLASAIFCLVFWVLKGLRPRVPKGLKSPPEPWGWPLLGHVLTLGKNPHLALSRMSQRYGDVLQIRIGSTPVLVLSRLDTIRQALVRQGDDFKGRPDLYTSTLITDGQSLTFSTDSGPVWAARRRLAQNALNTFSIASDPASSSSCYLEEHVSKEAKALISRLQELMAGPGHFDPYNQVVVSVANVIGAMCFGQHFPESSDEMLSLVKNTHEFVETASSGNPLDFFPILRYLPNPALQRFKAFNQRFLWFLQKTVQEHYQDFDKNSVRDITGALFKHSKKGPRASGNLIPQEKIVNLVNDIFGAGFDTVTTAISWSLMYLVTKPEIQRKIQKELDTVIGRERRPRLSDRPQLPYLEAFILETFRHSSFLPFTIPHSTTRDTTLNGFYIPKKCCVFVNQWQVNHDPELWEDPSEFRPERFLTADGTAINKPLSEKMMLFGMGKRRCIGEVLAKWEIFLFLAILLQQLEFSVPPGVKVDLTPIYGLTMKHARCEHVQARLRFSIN
Description: as §6, §7, §8, §9

[8] = wild-type HIV-1 IIIB, MT4 LTR-EGFP cells, three days after infection
[9] = Human immunodeficiency virus 1, 72 h, wild-type HIV-1 IIIB, MT4 LTR-EGFP cells, three days after infection

SMILES | Metabolic stability (HLM, % recovery after 15') [1] [%] | Antiviral activity IIIB (pEC50) [2, 8] | Cyp450 inhibition: CDNA-CYP2C19-CEC (% inhibition) (CYP2C19 [3]) [%] | Cyp450 inhibition: CDNA-CYP2C9-MFC (% inhibition) (CYP2C9) [%] | Cyp450 inhibition: CDNA-CYP3A4-BQ (% inhibition) (CYP3A4 [4]) [%] | Cyp450 inhibition: CDNA-CYP3A4-BFC (% inhibition) (CYP3A4 [5]) [%] | Toxicity MT4 (pCC50) (MT4 CMV-EGFP cells) | recovery at 15 min, 5 μM [1] [%] | EC50 ([2]; Human immunodeficiency virus 1, IIIB, 72 h) [µM] | inhibition at 45 min, 10 μM (CYP2D6) [%] | inhibition at 30 min, 10 μM (CYP2C19 [6]) [%] | CC50 at 3 days [7] [µM] | EC50 [2, 9] [µM] | inhibition at 30 min, 10 μM (CYP2C9; human, pH 7.4) [%] | CC50 [7] [µM] | inhibition at 15 min, 10 μM (CYP1A2) [%]
CN(C)CCN(C[C@@H](O)[C@H](Cc1ccccc1)NC(=O)OCc1cncs1)C(=O)c1ccc2nc(N3CCCC3)oc2c1 [Compound C17] | 55 | <4.00 | 46 | 34 | 79 | 95 | <4.00 | – | – | – | – | – | – | – | – | –
O=C(N[C@@H](Cc1ccccc1)[C@H](O)CN(CCN1CCCC1)C(=O)c1ccc2nc(N3CCCC3)oc2c1)OCc1cncs1 [Compound C13] | 81 | =4.24 | 46 | 42 | 76 | 91 | <4.00 | – | – | – | – | – | – | – | – | –
O=C(N[C@@H](Cc1ccccc1)[C@H](O)CN(CCN1CCOCC1)C(=O)c1ccc2nc(N3CCCC3)oc2c1)OCc1cncs1 [Compound C20] | 65 | <4.00 | 65 | 72 | 81 | 96 | <4.00 | – | – | – | – | – | – | – | – | –
CN(C[C@@H](O)[C@H](Cc1ccccc1)NC(=O)OCc1cncs1)C(=O)c1ccc2nc(N3CCCC3)oc2c1 [Compound C21] | 71 | <4.00 | 90 | 100 | 81 | 96 | <4.00 | – | – | – | – | – | – | – | – | –
CC(C)CN(C[C@@H](O)[C@H](Cc1ccccc1)NC(=O)OCc1cncs1)C(=O)c1ccc2nc(N3CCCC3)oc2c1 [Compound C2] | 78 | <4.00 | 92 | – | – | – | <4.00 | – | – | – | – | – | – | – | – | –
O=C(N[C@@H](Cc1ccccc1)[C@H](O)CN(CC1CCCCC1)C(=O)c1ccc2nc(N3CCCC3)oc2c1)OCc1cncs1 [Compound C31, Thiazol-5-ylmethyl (2S,3R)-4-(N-(cyclohexylmethyl)-2-(pyrrolidin-1-yl)-benzo[d]oxazole-6-carboxamido)-3-hydroxy-1-phenylbutan-2-ylcarbamate] | – | – | – | – | – | – | – | 59 | 27.5 | 78 | 104 | 21.9 | – | – | – | –
CC(C)(O)CN(C[C@@H](O)[C@H](Cc1ccccc1)NC(=O)OCc1cncs1)C(=O)c1ccc2nc(N3CCCC3)oc2c1 [Compound C28] | 72 | <4.00 | 83 | 99 | 79 | 98 | <4.00 | – | – | – | – | – | – | – | – | –
O=C(N[C@@H](Cc1ccccc1)[C@H](O)CN(CC1CCC(F)(F)CC1)C(=O)c1ccc2nc(N3CCCC3)oc2c1)OCc1cncs1 [Compound C47] | 78 | =4.53 | 96 | 98 | 85 | 95 | =4.38 | – | – | – | – | – | – | – | – | –
CC(C)CN(C[C@@H](O)[C@H](Cc1ccccc1)NC(=O)OCc1cncs1)C(=O)c1ccc2nc(C(C)C)oc2c1 [Compound C45, Thiazol-5-ylmethyl (2S,3R)-3-hydroxy-4-(N-isobutyl-2-isopropylbenzo[d]-oxazole-6-carboxamido)-1-phenylbutan-2-ylcarbamate] | – | – | – | – | – | – | – | 68 | – | 44 | 89 | 42.7 | 44.7 | – | – | –
CC(C)(C)CN(C[C@@H](O)[C@H](Cc1ccccc1)NC(=O)OCc1cncs1)C(=O)c1ccc2nc(N3CCCC3)oc2c1 [Compound C37] | 71 | =4.35 | 92 | 96 | 79 | 97 | =4.31 | – | – | – | – | – | – | – | – | –
CCN(C)c1nc2ccc(C(=O)N(CC(C)C)C[C@@H](O)[C@H](Cc3ccc(F)cc3)NC(=O)OCc3cncs3)cc2o1 [Compound C53, Thiazol-5-ylmethyl (2S,3R)-4-(2-(ethyl(methyl)amino)-N-isobutylbenzo[d]-oxazole-6-carboxamido)-1-(4-fluorophenyl)-3-hydroxybutan-2-ylcarbamate] | – | – | – | – | – | – | – | 71 | – | 61 | 95 | – | 46.8 | 96 | 50.1 | 0
